Source: patent US20210338846A1, “COMPETITIVE PROSTATE-SPECIFIC MEMBRANE ANTIGEN (PSMA) BINDING AGENTS FOR REDUCTION OF NON-TARGET ORGAN UPTAKE OF RADIOLABELED PSMA INHIBITORS FOR PSMA POSITIVE TUMOR IMAGING AND RADIOPHARMACEUTICAL THERAPY” (The Johns Hopkins University, priority 2018, published 2021)
Where “and” joins values, the source holds several entries; their conditions need not be identical. Equal values may be shown once. Read-outs that look alike come from different tables or passages of the source.

What was measured:
[1] = test system: PSMA+ PC-3 PiP and PSMA− PC-3 flu tumors; type: in vivo
[2] = test system: PSMA+ PC-3 PiP and PSMA− PC-3 flu tumors
[3] = 2 Hour (head; title: One-Hour), No CI
[4] = 2 Hour (head; title: One-Hour), co-injection 0.5 nmole VK-02-90
[5] = 2 Hour (head; title: One-Hour), co-injection 1.0 nmole VK-02-90
[6] = 2 Hour (head; title: One-Hour), co-injection 5.0 nmole VK-02-90
[7] = 4 Hour, co-injection 0.5 nmole VK-02-90
[8] = 4 Hour, co-injection 1.0 nmole VK-02-90
[9] = 4 Hour, co-injection 5.0 nmole VK-02-90
[10] = 1 h, co-injection 0.5 nmole YC-I-27
[11] = 1 h, co-injection 1.0 nmole YC-I-27
[12] = 1 h, co-injection 5.0 nmole YC-I-27
[13] = 4 h, co-injection 0.5 nmole YC-I-27
[14] = 4 h, co-injection 1.0 nmole YC-I-27
[15] = 4 h, co-injection 5.0 nmole YC-I-27
[16] = 24 h, co-injection 0.5 nmole YC-I-27

Compound: O=C([O-])CN1CCN(CC(=O)[O-])CCN(CC(=O)NCCCCC(=O)N(CCCC[C@H](NC(=O)N[C@@H](CCC(=O)O)C(=O)O)C(=O)O)Cc2ccc([125I])cc2)CCN(CC(=O)[O-])CC1.[Lu+3] [[^125I]VK-02-90-Lu]
- Biodistribution: Blood [1, 3]: 1.1 ± 0.1 % injected dose/gram
- Biodistribution: Flu tumor [1, 3]: 1.0 ± 0.2 % injected dose/gram
- Biodistribution: Lacrimal gland [1, 3]: 2.1 ± 0.9 % injected dose/gram
- Biodistribution: PiP tumor [1, 3]: 26 ± 3 % injected dose/gram
- Biodistribution: Salivary gland [1, 3]: 2.3 ± 0.5 % injected dose/gram
- Biodistribution: kidneys [1, 3]: 129 ± 15 % injected dose/gram
- Biodistribution: spleen [1, 3]: 4.3 ± 0.9 % injected dose/gram
- Biodistribution: stomach [1, 3]: 1.7 ± 0.3 % injected dose/gram
- Biodistribution: Blood [1, 4]: 0.4 ± 0.1 % injected dose/gram
- Biodistribution: Flu tumor [1, 4]: 0.6 ± 0.3 % injected dose/gram
- Biodistribution: Lacrimal gland [1, 4]: 0.4 ± 0.1 % injected dose/gram
- Biodistribution: PiP tumor [1, 4]: 37 ± 7 % injected dose/gram
- Biodistribution: Salivary gland [1, 4]: 0.2 ± 0.03 % injected dose/gram
- Biodistribution: kidneys [1, 4]: 10 ± 2.5 % injected dose/gram
- Biodistribution: spleen [1, 4]: 1.1 ± 0.4 % injected dose/gram
- Biodistribution: stomach [1, 4]: 0.2 ± 0.1 % injected dose/gram
- Biodistribution: Blood [1, 5]: 0.4 ± 0.1 % injected dose/gram
- Biodistribution: Flu tumor [1, 5]: 0.5 ± 0.1 % injected dose/gram
- Biodistribution: Lacrimal gland [1, 5]: 0.4 ± 0.1 % injected dose/gram
- Biodistribution: PiP tumor [1, 5]: 35 ± 9 % injected dose/gram
- Biodistribution: Salivary gland [1, 5]: 0.2 ± 0.06 % injected dose/gram
- Biodistribution: kidneys [1, 5]: 6.5 ± 0.9 % injected dose/gram
- Biodistribution: spleen [1, 5]: 1.1 ± 0.4 % injected dose/gram
- Biodistribution: stomach [1, 5]: 0.2 ± 0.04 % injected dose/gram
- Biodistribution: Blood [1, 6]: 0.5 ± 0.1 % injected dose/gram
- Biodistribution: Flu tumor [1, 6]: 0.9 ± 0.3 % injected dose/gram
- Biodistribution: Lacrimal gland [1, 6]: 0.4 ± 0.03 % injected dose/gram
- Biodistribution: PiP tumor [1, 6]: 24 ± 4 % injected dose/gram
- Biodistribution: Salivary gland [1, 6]: 0.3 ± 0.1 % injected dose/gram
- Biodistribution: kidneys [1, 6]: 4.2 ± 0.5 % injected dose/gram
- Biodistribution: spleen [1, 6]: 0.7 ± 0.2 % injected dose/gram
- Biodistribution: stomach [1, 6]: 0.2 ± 0.06 % injected dose/gram
- Biodistribution: Blood ([1]; 4 Hour, No CI): 0.3 ± 0.2 % injected dose/gram
- Biodistribution: Flu tumor ([1]; 4 Hour, No CI): 0.2 ± 0.1 % injected dose/gram
- Biodistribution: Lacrimal gland ([1]; 4 Hour, No CI): 0.4 ± 0.2 % injected dose/gram
- Biodistribution: PiP tumor ([1]; 4 Hour, No CI): 27 ± 8 % injected dose/gram
- Biodistribution: Salivary gland ([1]; 4 Hour, No CI): 1.8 ± 0.2 % injected dose/gram
- Biodistribution: kidneys ([1]; 4 Hour, No CI): 10 ± 2.5 % injected dose/gram
- Biodistribution: spleen ([1]; 4 Hour, No CI): 0.6 ± 0.2 % injected dose/gram
- Biodistribution: stomach ([1]; 4 Hour, No CI): 0.8 ± 0.5 % injected dose/gram
- Biodistribution: Blood [1, 7]: 0.02 ± 0.01 % injected dose/gram
- Biodistribution: Flu tumor [1, 7]: 0.1 ± 0.02 % injected dose/gram
- Biodistribution: Lacrimal gland [1, 7]: 0.1 ± 0.03 % injected dose/gram
- Biodistribution: PiP tumor [1, 7]: 25 ± 2 % injected dose/gram
- Biodistribution: Salivary gland [1, 7]: 0.08 ± 0.04 % injected dose/gram
- Biodistribution: kidneys [1, 7]: 2.1 ± 0.7 % injected dose/gram
- Biodistribution: spleen [1, 7]: 0.2 ± 0.1 % injected dose/gram
- Biodistribution: stomach [1, 7]: 0.06 ± 0.01 % injected dose/gram
- Biodistribution: Blood [1, 8]: 0.2 ± 0.01 % injected dose/gram
- Biodistribution: Flu tumor [1, 8]: 0.1 ± 0.03 % injected dose/gram
- Biodistribution: Lacrimal gland [1, 8]: 0.1 ± 0.05 % injected dose/gram
- Biodistribution: PiP tumor [1, 8]: 27 ± 4 % injected dose/gram
- Biodistribution: Salivary gland [1, 8]: 0.1 ± 0.02 % injected dose/gram
- Biodistribution: kidneys [1, 8]: 1.4 ± 0.4 % injected dose/gram
- Biodistribution: spleen [1, 8]: 0.2 ± 0.1 % injected dose/gram
- Biodistribution: stomach [1, 8]: 0.1 ± 0.03 % injected dose/gram
- Biodistribution: Blood [1, 9]: 0 % injected dose/gram
- Biodistribution: Flu tumor [1, 9]: 0.1 ± 0.01 % injected dose/gram
- Biodistribution: Lacrimal gland [1, 9]: 0.1 ± 0.1 % injected dose/gram
- Biodistribution: PiP tumor [1, 9]: 19 ± 2 % injected dose/gram
- Biodistribution: Salivary gland [1, 9]: 0.05 ± 0.02 % injected dose/gram
- Biodistribution: kidneys [1, 9]: 0.9 ± 0.3 % injected dose/gram
- Biodistribution: spleen [1, 9]: 0.15 ± 0.08 % injected dose/gram
- Biodistribution: stomach [1, 9]: 0.1 ± 0.04 % injected dose/gram
- Biodistribution: Blood ([2]; 1 h, No CI): 1.1 ± 0.1 % injected dose/gram
- Biodistribution: Flu tumor ([2]; 1 h, No CI): 1.0 ± 0.2 % injected dose/gram
- Biodistribution: Lacrimal gland ([2]; 1 h, No CI): 2.1 ± 0.9 % injected dose/gram
- Biodistribution: PiP tumor ([2]; 1 h, No CI): 26 ± 3 % injected dose/gram
- Biodistribution: Salivary gland ([2]; 1 h, No CI): 2.3 ± 0.5 % injected dose/gram
- Biodistribution: kidneys ([2]; 1 h, No CI): 129 ± 15 % injected dose/gram
- Biodistribution: spleen ([2]; 1 h, No CI): 4.3 ± 0.9 % injected dose/gram
- Biodistribution: stomach ([2]; 1 h, No CI): 1.7 ± 0.3 % injected dose/gram
- Biodistribution: Blood [2, 10]: 1.1 ± 0.1 % injected dose/gram
- Biodistribution: Flu tumor [2, 10]: 1.0 ± 0.3 % injected dose/gram
- Biodistribution: Lacrimal gland [2, 10]: 0.5 ± 0.1 % injected dose/gram
- Biodistribution: PiP tumor [2, 10]: 42 ± 4 % injected dose/gram and 42 ± 4.2 % injected dose/gram
- Biodistribution: Salivary gland [2, 10]: 3.2 ± 0.7 % injected dose/gram
- Biodistribution: kidneys [2, 10]: 4.2 ± 1.3 % injected dose/gram
- Biodistribution: spleen [2, 10]: 0.8 ± 0.2 % injected dose/gram
- Biodistribution: stomach [2, 10]: 1.8 ± 0.2 % injected dose/gram
- Biodistribution: Blood [2, 11]: 1.0 ± 0.1 % injected dose/gram
- Biodistribution: Flu tumor [2, 11]: 0.8 ± 0.2 % injected dose/gram
- Biodistribution: Lacrimal gland [2, 11]: 0.6 ± 0.05 % injected dose/gram
- Biodistribution: PiP tumor [2, 11]: 29 ± 2 % injected dose/gram
- Biodistribution: Salivary gland [2, 11]: 2.9 ± 0.4 % injected dose/gram
- Biodistribution: kidneys [2, 11]: 2.4 ± 0.8 % injected dose/gram
- Biodistribution: spleen [2, 11]: 0.6 ± 0.1 % injected dose/gram
- Biodistribution: stomach [2, 11]: 1.8 ± 0.3 % injected dose/gram
- Biodistribution: Blood [2, 12]: 1.1 ± 0.2 % injected dose/gram
- Biodistribution: Flu tumor [2, 12]: 0.8 ± 0.2 % injected dose/gram
- Biodistribution: Lacrimal gland [2, 12]: 1.1 ± 0.6 % injected dose/gram
- Biodistribution: PiP tumor [2, 12]: 20 ± 3 % injected dose/gram
- Biodistribution: Salivary gland [2, 12]: 5.1 ± 1.7 % injected dose/gram
- Biodistribution: kidneys [2, 12]: 2.3 ± 0.7 % injected dose/gram
- Biodistribution: spleen [2, 12]: 0.7 ± 0.1 % injected dose/gram
- Biodistribution: stomach [2, 12]: 2.2 ± 0.7 % injected dose/gram
- Biodistribution: Blood ([2]; 4 h, No CI): 0.3 ± 0.2 % injected dose/gram
- Biodistribution: Flu tumor ([2]; 4 h, No CI): 0.2 ± 0.1 % injected dose/gram and 0.25 ± 0.1 % injected dose/gram
- Biodistribution: Lacrimal gland ([2]; 4 h, No CI): 0.4 ± 0.2 % injected dose/gram
- Biodistribution: PiP tumor ([2]; 4 h, No CI): 27 ± 7 % injected dose/gram and 27 ± 8 % injected dose/gram
- Biodistribution: Salivary gland ([2]; 4 h, No CI): 1.8 ± 0.2 % injected dose/gram
- Biodistribution: kidneys ([2]; 4 h, No CI): 9.5 ± 2.5 % injected dose/gram and 10 ± 2.5 % injected dose/gram
- Biodistribution: spleen ([2]; 4 h, No CI): 0.6 ± 0.2 % injected dose/gram
- Biodistribution: stomach ([2]; 4 h, No CI): 0.8 ± 0.5 % injected dose/gram
- Biodistribution: Blood [2, 13]: 0.4 ± 0.06 % injected dose/gram
- Biodistribution: Flu tumor [2, 13]: 0.3 ± 0.1 % injected dose/gram
- Biodistribution: Lacrimal gland [2, 13]: 0.2 ± 0.02 % injected dose/gram and 0.4 ± 0.02 % injected dose/gram
- Biodistribution: PiP tumor [2, 13]: 24 ± 3 % injected dose/gram
- Biodistribution: Salivary gland [2, 13]: 3.3 ± 0.8 % injected dose/gram
- Biodistribution: kidneys [2, 13]: 0.9 ± 0.1 % injected dose/gram
- Biodistribution: spleen [2, 13]: 0.25 ± 0.07 % injected dose/gram
- Biodistribution: stomach [2, 13]: 1.3 ± 0.2 % injected dose/gram
- Biodistribution: Blood [2, 14]: 0.4 ± 0.05 % injected dose/gram
- Biodistribution: Flu tumor [2, 14]: 0.3 ± 0.1 % injected dose/gram
- Biodistribution: Lacrimal gland [2, 14]: 0.2 ± 0.03 % injected dose/gram
- Biodistribution: PiP tumor [2, 14]: 24 ± 1 % injected dose/gram
- Biodistribution: Salivary gland [2, 14]: 3.2 ± 0.7 % injected dose/gram
- Biodistribution: kidneys [2, 14]: 0.6 ± 0.03 % injected dose/gram
- Biodistribution: spleen [2, 14]: 0.2 ± 0.04 % injected dose/gram
- Biodistribution: stomach [2, 14]: 1.2 ± 0.2 % injected dose/gram
- Biodistribution: Blood [2, 15]: 0.4 ± 0.1 % injected dose/gram
- Biodistribution: Flu tumor [2, 15]: 0.3 ± 0.1 % injected dose/gram
- Biodistribution: Lacrimal gland [2, 15]: 0.5 ± 0.5 % injected dose/gram
- Biodistribution: PiP tumor [2, 15]: 14 ± 5 % injected dose/gram
- Biodistribution: Salivary gland [2, 15]: 5.0 ± 1.4 % injected dose/gram
- Biodistribution: kidneys [2, 15]: 0.7 ± 0.1 % injected dose/gram
- Biodistribution: spleen [2, 15]: 0.3 ± 0.06 % injected dose/gram
- Biodistribution: stomach [2, 15]: 1.6 ± 0.4 % injected dose/gram
- Biodistribution: Blood ([2]; 24 h, No CI): 0.01 ± 0.01 % injected dose/gram
- Biodistribution: Flu tumor ([2]; 24 h, No CI): 0.05 ± 0.01 % injected dose/gram
- Biodistribution: Lacrimal gland ([2]; 24 h, No CI): 0.05 ± 0.04 % injected dose/gram
- Biodistribution: PiP tumor ([2]; 24 h, No CI): 18 ± 6 % injected dose/gram
- Biodistribution: Salivary gland ([2]; 24 h, No CI): 0.02 ± 0.08 % injected dose/gram
- Biodistribution: kidneys ([2]; 24 h, No CI): 1.3 ± 0.7 % injected dose/gram
- Biodistribution: spleen ([2]; 24 h, No CI): 0.1 ± 0.05 % injected dose/gram
- Biodistribution: stomach ([2]; 24 h, No CI): 0.01 ± 0.04 % injected dose/gram
- Biodistribution: Blood [2, 16]: 0.1 ± 0.01 % injected dose/gram
- Biodistribution: Flu tumor [2, 16]: 0.04 ± 0.01 % injected dose/gram
- Biodistribution: Lacrimal gland [2, 16]: 0.03 ± 0.02 % injected dose/gram
- Biodistribution: PiP tumor [2, 16]: 16 ± 4 % injected dose/gram
- Biodistribution: Salivary gland [2, 16]: 0.02 ± 0.01 % injected dose/gram
- Biodistribution: kidneys [2, 16]: 0.5 ± 0.2 % injected dose/gram
- Biodistribution: spleen [2, 16]: 0.04 ± 0.01 % injected dose/gram
- Biodistribution: stomach [2, 16]: 0.04 ± 0.04 % injected dose/gram
